From article PMC10714399, “Open Source Antibiotics: Simple Diarylimidazoles Are Potent against Methicillin-Resistant Staphylococcus aureus” (ACS Infectious Diseases, 2023)
≈ marks a conversion by molar mass, not a printed value. Structures can show the parent of a compound that is named as a salt. Where two headings read alike, the source gives them in different places.

Legend:
[1] = test system: Staphylococcus aureus ATCC 43300 MRSA; assay: CO-ADD antibacterial assay (growth inhibition, MIC), MRSA; type: cell-based; conditions: read-out: MIC MRSA (CO-ADD)
Description: Hit Confirmation of active compounds by whole cell growth inhibition assays was conducted as an 8-point dose response to determine the Minimum Inhibitory Concentration (MIC), in duplicate (n=2). The inhibition of growth is measured against those microorganisms that […]
Included in the Hit Confirmation were 5 bacteria: Escherichia coli, Klebsiella pneumoniae, Acinetobacter baumannii, Pseudomonas aeruginosa and Staphylococcus aureus, and 2 fungi Candida albicans and Cryptococcus neoformans. […]
Assay Parameters Bacteria Fungi HEK293 Haemolysis […]
Duplicate (n=2) Duplicate (n=2) Duplicate (n=2) Duplicate (n=2)
QC Control MIC: Control MIC: Control CC50: Control HC10:
Non-Binding Non-Binding TC, 384-well Polypropylene
Plates Surface (NBS), Surface (NBS), black wall/clear 384-well and 384-well plate 384-well plate bottom polystyrene 384-
Cation-adjusted Yeast Nitrogen DMEM
Media Mueller Hinton Base supplemented 0.9% NaCl
Hit Confirmation outcomes are detailed in individual Project reports, personalised for each Project Submission for each CO-ADD user.
Please see your data sheet with file extension P0XXX_HC_data.xlsx, for example CO-ADD Project P0100, P0100_HC_data.xlsx
Study: HC_data ID: HC-Procedures & Materials
Date: Last updated June 2018 Confidential Page 3 of 11
(1 picture or pasted object on this page, not shown here)
Samples were provided by the collaborator and stored frozen at -20 °C. Samples were prepared in DMSO and water to a final testing concentration of 32 µg/mL or 20 µM (unless otherwise indicated in the data sheet) and serially diluted 1:2 fold for 8 times. Each sample concentration was prepared in 384-well plates, non-binding surface plate (NBS; Corning 3640) for each bacterial/fungal strain, tissue-culture treated (TC-treated; Corning 3712/3764) black for mammalian cell types and polypropylene 384-well (PP; Corning 3657) for haemolysis assays, all in duplicate (n=2), and keeping the final DMSO concentration to a maximum of 0.5%. All the sample preparation was done using liquid handling robots. […]
detailed in the Data sheet for the individual Project.
All bacteria were cultured in Cation-adjusted Mueller Hinton broth (CAMHB) at 37 °C overnight. A sample of each culture was then diluted 40-fold in fresh broth and incubated at 37 °C for 1.5-3 h. The resultant mid-log phase cultures were diluted (CFU/mL measured by OD600), then added to each well of the compound containing plates, giving a cell density of 5×10^5 CFU/mL and a total volume of 50 µL. All the plates were covered and incubated at 37 °C for 18 h without shaking.
Inhibition of bacterial growth was determined measuring absorbance at 600 nm (OD600), using a Tecan M1000 Pro monochromator plate reader. The percentage of growth inhibition was calculated for each well, using the negative control (media only) and positive control (bacteria without inhibitors) on the same plate as references.
The percentage of growth inhibition was calculated for each well, using the negative control (media only) and positive control (bacteria without inhibitors) on the same plate. The MIC […]
by an inhibition ≥ 80%. In addition, the maximal percentage of growth inhibition is reported as DMax, indicating any compounds with partial activity.
Date: Last updated June 2018 Confidential Page 5 of 11
Material Code Brand/Supplier Cat No.
Compound preparation plate, Polypropylene PP Corning 3364
Assay Plates – Antimicrobial
Non-binding surface NBS 384w Corning 3640
Assay Plates – Cytotoxicity
Tissue culture treated Black/Clear bottom 384w Corning 3712
Assay Plates - Haemolysis PP-Haem Corning 3657 […]
Growth media - bacteria CAMHB Bacto Laboratories 212322
Culture agar - fungi YPD Becton Dickinson 242720
Growth media - fungi YNB Becton Dickinson 233520
Resazurin Sigma-Aldrich R7017
Dulbecco's Modified Eagle Medium DMEM Life Technologies 11995-073
Foetal Bovine Serum FBS Bovogen FFBS-500
0.9% NaCl Saline Baxter AHF7124
Sample Name Sample ID MW Conc. Solvent Source […]

[2] = test system: S. aureus ATCC 25923 (methicillin-susceptible); assay: In vitro antibacterial activity, MIC (UCL), MSSA; type: cell-based, Staphylococcus aureus; conditions: Staphylococcus aureus; read-out: MSSA MIC
In short: (§1)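 Two-fold dilution MIC testing, 32–0.03 μg/mL, isosensitest broth medium. Cultures standardized by absorbance at 600 nm (0.1, ~1 × 10^8 CFU/mL) before 1:100 dilution; vancomycin included for quality control.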

[3] = HEK293 toxicity, 96-well dose-response (UCL; MTT or resazurin, with or without recovery); type: cell-based, human; conditions: human, HEK293 cells; 32 μg/mL; read-out: spread of Dmax values comparing recovery and non-recovery conditions
Description: The importance of balancing potency vs MRSA and cytotoxicity led us to examine a subset of compounds more thoroughly for toxicity against human embryonic kidney cell line HEK293. […] Dmax is a parameter that quantifies toxicity at the highest tested concentration (32 μg/mL for all compounds), calculated as reciprocal percentage of viable cells (100 – viability%), where cells either were allowed to recover or viability was measured immediately after treatment. […] Our efforts focused on trying to replicate the original toxicity experiments (by CO-ADD) with tamoxifen using a protocol modified for use with 96-well plates. Given the variability of protocols and results in the literature,[28] it was important to compare with a standard protocol we have reliably used in our own laboratories.[29]−[33] […] Truly “non-toxic” compounds might be expected to show Dmax < 50% for all experiment variations, e.g., 861. […] A large spread of Dmax values comparing recovery and non-recovery conditions larger than 20% is perhaps indicative of a mechanism of toxicity that persists beyond exposure, i.e., cytotoxic compounds that continue to induce toxicity as cells recover and restart dividing, for example, compounds 865, 870, 871, 980, and 981. […] This variability could be driven by interference of the compounds with the fluorescence readout or resorufin build-up as previously described.[27]
HEK293 cells (ATCC, UK) at passage 32 were a kind gift from Dr. Ben Allsop from the Translational Research Office at University College London. Cells were tested for mycoplasma using a MycoAlert Detection Kit (Lonza, Switzerland) as per manufacturer instructions, frozen stocks were stored in liquid nitrogen, and cells were re-tested whenever a new aliquot was thawed.
Cells were maintained in DMEM (Sigma-Aldrich, UK) supplemented with 10% heat-inactivated FBS (Sigma-Aldrich, UK), 1% GlutaMax (ThermoFisher, UK), and 1% sodium pyruvate (Lonza, UK) without antibiotics in an incubator at 37 °C and 5% CO2. Media was changed every 2 days, and cells were passaged every 3–4 days at a subcultivation ratio of 1:10, by detaching the cells with phenol-free TrypLE Express (ThermoFisher, UK), after washing with HBSS Ca^2+/Mg^2+ (ThermoFisher, UK). Up to 55 passages were used throughout the experiments.
(a) Cell seeding: At subculture, a dilute solution of cells was counted using Trypan Blue (Sigma-Aldrich, UK) and a hemocytometer. Cells were further diluted to 7000 or 50 000 cells/mL for experiments.
For recovery experiments, 700 cells (100 μL) were seeded in 96-well plates and incubated for 48 h while cells reached exponential phase.
For non-recovery experiments, 5000 cells (100 μL) were seeded in 96-well plates and incubated for 48 h while cells reached confluence. This is the same number of cells as per the CO-ADD protocol where 384-well plates were used, but we extended the growth time to 48 h to produce a similar confluency.
Stock solutions were diluted 100 times (to 1% DMSO) to 32 μg/mL in full medium (vortexed briefly) and then serially diluted using a digital pipet (Explorer, Eppendorf, Germany) at a dilution factor of 2 to a final concentration of […].
(c) Dosing experiments: At the specified time after seeding, media was removed from cells, cells were washed with HBSS Ca^2+/Mg^2+ (100 μL), and 100 μL of diluted compounds were added as per Supporting Information - Biology, Figure S4, and incubated for 24 h.
After treatment, solutions were removed, and cells were washed with HBSS Ca^2+/Mg^2+. For non-recovery experiments, viability was determined immediately as described below.
For recovery experiments, fresh media was added to plates (100 μL) and cells were returned to the incubator for another 72 h, after which viability was recorded as described below.
i. MTT assay: 3-[4,5-Dimethylthiazol-2-yl]-2,5-diphenyltetrazolium bromide (MTT) (Sigma-Aldrich, UK) was dissolved in sterile PBS at 5 mg/mL with sonication (20 min), protected from light. […]

[4] = test system: Staphylococcus aureus NCTC 13373 (mecA-positive; methicillin-resistant); assay: In vitro antibacterial activity, MIC (UCL School of Pharmacy assay), MRSA; type: cell-based; conditions: Staphylococcus aureus, read-out: MRSA MIC
In short: as §1

[5] = test system: Enterococcus faecalis ATCC 51299 (vanA-positive; vancomycin-resistant); assay: In vitro antibacterial activity, MIC (UCL), VRE; type: cell-based; conditions: read-out: VRE MIC
In short: as §1

Aqueous solubility = type: physicochemical; conditions: thermodynamic from solid; read-out: Aqueous Solubility
[6] = Human plasma protein binding (PPB); type: in vitro ADME; conditions: human, plasma; read-out: Human PPB (converted)
[7] = test system: PMM (primary mouse macrophages); assay: Toxicity against PMM; type: cell-based
Description: (§2) ADME and toxicity for compounds were measured according to procedures outlined in the manuscript submitted in parallel to this one;2 other procedures were used for those compounds analysed by Monash University (in vitro ADME) or UCL (toxicity), both described in the main

[8] = test system: MRC-5SV2 (human lung fibroblast cell line); assay: Toxicity against MRC-5SV2; type: cell-based
Description: as §2

| SMILES | MIC [2] [µg/mL] | MIC ([4]; 16 h) [µg/mL] | MIC [4] [µg/mL] | MIC [5] [µg/mL] | solubility (Aqueous solubility) [µM] | fraction unbound [6] | MIC [1] [µg/mL] | Dmax spread between recovery and non-recovery conditions at 24 h, 32 μg/mL [3] [%] | PMM TC50 [7] [µg/mL] | MRC5 TC50 [8] [µg/mL] |
| --- | --- | --- | --- | --- | --- | --- | --- | --- | --- | --- |
| CN[C@H](CC(C)C)C(=O)N[C@H]1C(=O)N[C@@H](CC(N)=O)C(=O)N[C@H]2C(=O)N[C@H]3C(=O)N[C@H](C(=O)N[C@H](C(=O)O)c4cc(O)cc(O)c4-c4cc3ccc4O)[C@H](O)c3ccc(c(Cl)c3)Oc3cc2cc(c3O[C@@H]2O[C@H](CO)[C@@H](O)[C@H](O)[C@H]2O[C@H]2C[C@](C)(N)[C@H](O)[C@H](C)O2)Oc2ccc(cc2Cl)[C@H]1O [Vancomycin - HCl, Vancomycin - HCL, reference compound] | – | – | – | – | – | – | 1 | – | – | – |
| Cc1ccc(-c2c(-c3ccccn3)nc3n2CCC3)cc1 [compound 865] | 1 (≈ 3.63 µM) | 4 (≈ 14.5 µM) | 4 (≈ 14.5 µM) | 16 (≈ 58.1 µM) | 32 (≈ 8.81 µg/mL) | 0.08 | – | > 20 | – | – |
| c1ccc(-c2c(-c3ccccn3)nc3n2CCC3)cc1 [compound 870] | – | – | 32 (≈ 122 µM) | > 32 | – | – | – | > 20 | – | – |
| c1ccc(-c2nc3ccccn3c2-c2ccc3sccc3c2)nc1 [compound 871] | – | – | 4 (≈ 12.2 µM) | 8 (≈ 24.4 µM) | – | – | – | > 20 | – | – |

More lines, main results first:

| MIC [2] [µg/mL] | MIC ([4]; 16 h) [µg/mL] | MIC [4] [µg/mL] | MIC [5] [µg/mL] | solubility (Aqueous solubility) [µM] | fraction unbound [6] | SMILES | MIC [1] [µg/mL] | Dmax spread between recovery and non-recovery conditions at 24 h, 32 μg/mL [3] [%] | PMM TC50 [7] [µg/mL] | MRC5 TC50 [8] [µg/mL] |
| --- | --- | --- | --- | --- | --- | --- | --- | --- | --- | --- |
| 4 (≈ 11.5 µM) | – | 4 (≈ 11.5 µM) | 8 (≈ 23 µM) | – | – | COc1ccc2nc(-c3ccccn3)c(N(C)c3ccc(F)cc3)n2c1 [compound 980] | – | > 20 | 2.8 | 0.7 |
| 2 (≈ 6.02 µM) | – | 2 (≈ 6.02 µM) | 8 (≈ 24.1 µM) | – | – | CCN(c1ccc(F)cc1)c1c(-c2ccccn2)nc2ccccn12 [compound 981] | – | > 20 | 2.7 | 1.6 |
